Assay results: patent US4597900A, “Des^2 -glycine^8 -des^22 -calcitonin” (Armour Pharmaceutical Co., priority 1983, dated 1986)
Where a SMILES comes first, the peptide text is derived from it. Bridges are numbered along the chain shown (N, C = ends).

Test system: serum calcium concentration
Assay: Biological assay of calcitonin analogs in vivo: reduction of serum calcium concentration, 2x2 parallel line assay
Parameters: species or system Rats
Description: The biological potency of [Des-Serine^2 -Glycine^8 -Des-Tyrosine^22 ]salmon calcitonin was determined by comparing the reduction of serum calcium concentration which followed administration by graded doses of [Des-Ser^2 -Gly^8 -Des-Tyr^22 ]SCT and synthetic salmon calcitonin standard. Rats were divided into four groups of seven animals, and each group was assigned at random to a dose of standard or test solution. Low and high doses were chosen from the linear portion of the dose-response curve. For the salmon calcitonin standard, the values were 0.7 and 2.1 ng. peptide/100 g. body weight (BW). This dose approximates 3 and 9 MU/100 g. BW. Peptides were given by subcutaneous injection (0.2 ml/100 g. BW) and blood was withdrawn 1 hour later for serum calcium determination. Sera are processed and analyzed within two hours of collection. […]. Results were analyzed by a 2×2 parallel line assay [Gaddum, J. H., J. Pharm. Pharmacol., 6, 345 (1953)]. The standard salmon calcitonin used was independently determined to contain greater than 4,000 IU/mg. [Des-Ser^2 -Gly^8 -Des-Tyr^22 ]SCT assayed at 6900 IU/mg.

SMILES	potency of standard, independently determined (standard salmon calcitonin used in the assay)	biological potency (reduction of serum calcium concentration) (rats, subcutaneous injection, blood withdrawn 1 hour later, compared with synthetic salmon calcitonin standard) [IU/mg]
CC(C)C[C@H](NC(=O)[C@H](CCCCN)NC(=O)CNC(=O)[C@H](CC(C)C)NC(=O)[C@@H](NC(=O)[C@@H]1CSSC[C@H](N)C(=O)N[C@@H](CO)C(=O)N[C@@H](CC(N)=O)C(=O)N[C@@H](CC(C)C)C(=O)N[C@@H](CO)C(=O)N[C@@H]([C@@H](C)O)C(=O)N1)C(C)C)C(=O)N[C@@H](CO)C(=O)N[C@@H](CCC(N)=O)C(=O)N[C@@H](CCC(=O)O)C(=O)N[C@@H](CC(C)C)C(=O)N[C@@H](Cc1c[nH]cn1)C(=O)N[C@@H](CCCCN)C(=O)N[C@@H](CC(C)C)C(=O)N[C@@H](CCC(N)=O)C(=O)N[C@H](C(=O)N[C@@H](Cc1ccc(O)cc1)C(=O)N1CCC[C@H]1C(=O)N[C@@H](CCCNC(=N)N)C(=O)N[C@H](C(=O)N[C@@H](CC(N)=O)C(=O)N[C@H](C(=O)NCC(=O)N[C@@H](CO)C(=O)NCC(=O)N[C@H](C(=O)N1CCC[C@H]1C(N)=O)[C@@H](C)O)[C@@H](C)O)[C@@H](C)O)[C@@H](C)O [standard salmon calcitonin, Salmon calcitonin]	greater than 4,000 IU/mg	
CC(C)C[C@H](NC(=O)CNC(=O)[C@@H]1CSSC[C@H](N)C(=O)N[C@@H](CC(N)=O)C(=O)N[C@@H](CC(C)C)C(=O)N[C@@H](CO)C(=O)N[C@@H]([C@@H](C)O)C(=O)N1)C(=O)NCC(=O)N[C@@H](CCCCN)C(=O)N[C@@H](CC(C)C)C(=O)N[C@@H](CO)C(=O)N[C@@H](CCC(N)=O)C(=O)N[C@@H](CCC(=O)O)C(=O)N[C@@H](CC(C)C)C(=O)N[C@@H](Cc1c[nH]cn1)C(=O)N[C@@H](CCCCN)C(=O)N[C@@H](CC(C)C)C(=O)N[C@@H](CCC(N)=O)C(=O)N[C@H](C(=O)N1CCC[C@H]1C(=O)N[C@@H](CCCNC(=N)N)C(=O)N[C@H](C(=O)N[C@@H](CC(N)=O)C(=O)N[C@H](C(=O)NCC(=O)N[C@@H](CO)C(=O)NCC(=O)N[C@H](C(=O)N1CCC[C@H]1C(N)=O)[C@@H](C)O)[C@@H](C)O)[C@@H](C)O)[C@@H](C)O [[Des-Ser^2 -Gly^8 -Des-Tyr^22]SCT, [Des-Serine^2 -Glycine^8 -Des-Tyrosine^22]salmon calcitonin] (H-CNLSTCGLGKLSQELHKLQTPRTNTGSGTP-NH2; disulfide 1-6)		6900
